This note sets out measurements from patent publication US7713963B2, “Acylated indanyl amines and their use as pharmaceuticals” (sanofi-aventis Deutschland GmbH, priority 2001, dated 2010).

As usually defined, the melting point is the temperature of the solid-liquid transition.

The structures appear in SMILES notation.

The subject of one data set is eNOS promoter. As to the kind of experiment: Activation of eNOS transcription (eNOS promoter-luciferase reporter gene assay). The format is cell-based, human. The following applies: Homo sapiens, 18 h, 18 h incubation; for maximal fold induction: maximum transcription induction ratio (luciferase with compound / solvent alone), read-out: TIR (max); for EC50: Endothelial cell, EC50 of transcription induction ratio, determined graphically, human endothelial cell line, read-out: EC-50. In short, it runs like this:
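Human endothelial cell line stably expressing firefly luciferase under a 3.5 kB eNOS promoter fragment, treated 18 h with compounds (0.5% DMSO final). Luciferase induction relative to solvent gives transcription induction ratio; EC50 read graphically from ratio versus concentration.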
In general terms: Reporter assays use an easily measured gene product as a stand-in for the process of interest.

Data set [1] deals with vascular eNOS expression. As to the kind of experiment: Vascular eNOS expression (femoral arteries) after chronic treatment. Type of data set: in vivo. The following applies: ApoE deficient mice, 16 weeks treatment. Here is the method: ApoE deficient mice were treated for 16 weeks with the respective compound pressed in chow and finally sacrificed. Aortas were removed from each mouse, fixed in formalin and embedded in paraffin. Plaque formation was measured via lipid lesion formation in the aortas (from aortic arch to diaphragm) and was analyzed by oil red O staining. For quantifying the effect of the respective compound on vascular eNOS expression the femoral arteries were used in this experiment.

The next data set has as its system eNOS deficient mice. As to the kind of experiment: Blood pressure in eNOS deficient mice (tail-cuff). Type of data set: in vivo. The following applies: similar dosing, 4 weeks treatment. From the text: (§1) Animals and Treatment (Experiments A-C)
(§2) ApoE and eNOS deficient mice (C57BL/6J background, Jackson Laboratory, Bar Harbor, Me.) were used. All animals were 10-12 weeks of age and weighed 22 to 28 g. Three days before surgery mice were divided into 4 groups (apoE control, n=10-12; apoE with test compounds, n=10-12; eNOS control, n=10-12; eNOS with test compounds, n=10-12) and received either a standard rodent chow (containing 4% fat and 0.001% cholesterol; in the following designated as placebo group) or a standard rodent chow+test compound (10 or 30 mg/kg/d p.o.).
(§3) Blood-pressure was determined in conscious mice using a computerized tail-cuff system (Visitech Systems, Apex, Nc). After treatment of ApoE deficient mice and eNOS deficient mice with the test compounds the blood pressure was compared to the results obtained with a placebo treatment.

Data set [2] has as its system ApoE deficient mice. In words: Inhibition of neointima formation and atherogenesis (femoral artery cuff) in ApoE deficient mice. Type of data set: in vivo. The conditions noted are these: 10 mg/kg/d in chow, 3 days before to 14 days after cuff surgery, versus placebo.
From the text: as §1, §2
B Inhibition of Neointima Formation and Atherogenesis (Femoral Artery Cuff)
After 3 day treatment of ApoE deficient mice with the respective compound, (10 mg/kg/d pressed in chow), animals were anesthetized with an intraperitoneal injection of pentobarbital (60 mg/kg) followed by an intramuscular injection of xylazin (2 mg/kg) and a cuff was placed around the femoral artery as described in Moroi et al. (J. Clin. Invest. 101: 1225-32, 1998). Briefly, the left femoral artery was dissected. […] The aorta were taken for determination of vascular eNOS expressions by quantitative western blotting. […] For each cross section the area of the lumen, the neointima and the media were determined. […] The ratio between the area of the neointima and the area of the media was expressed as the neointima/media ratio.

Data set [3] concerns ApoE deficient mice. As to the kind of experiment: Improvement of coronary function in diseased ApoE deficient mice (isolated working heart). The following applies: isolated hearts of ApoE deficient mice, 30 mg/kg/d p.o. for 8 weeks. Type of data set: in vivo. The text has this:
D Improvement of Coronary Function in Diseased ApoE Deficient Mice
Old Male wild-type C57BL/6J mice (Charles River Wiga GmbH, Sulzfeld), and apoE deficient mice (C57BL/6J background, Jackson Laboratory, Bar Harbor, Me.) 6 month of age and weighing 28 to 36 g were used in the experiments. Mice were divided into 3 groups (C57BL/6, n=8; apoE control, n=8; apoE with respective compound, n=8) and received for 8 weeks either a standard rodent chow (containing 4% fat and 0.001% cholesterol) or a standard rodent chow+respective compound (30 mg/kg/d p.o.).
Mice were anesthetized with sodium pentobarbitone (100 mg/kg i.p.), and the hearts were rapidly excised and placed into ice-cold perfusion buffer. The aorta was cannulated and connected to a perfusion apparatus (HUGO SACHS ELECTRONICS, Freiburg, Germany) which was started immediately at a constant perfusion pressure of 60 mm Hg. Hearts were perfused in a retrograde fashion with modified Krebs bicarbonate buffer, equilibrated with 95% O2 and 5% CO2 and maintained at 37.5° C.
A beveled small tube (PE 50) was passed through a pulmonary vein into the left ventricle and pulled through the ventricular wall, anchored in the apex by a fluted end, and connected to a tip-micromanometer (Millar 1.4 French). The left atrium was cannulated through the same pulmonary vein and the heart switched to the working mode with a constant preload pressure of 10 mm Hg and an afterload pressure of 60 mm Hg. Aortic outflow and atrial inflow were continuously measured using ultrasonic flow probes (HSE/Transonic Systems Inc.). Coronary flow was calculated as the difference between atrial flow and aortic flow. All hemodynamic data were digitized at a sampling rate of 1000 Hz and recorded with a PC using specialized software (HEM, Notocord).
Hearts were allowed to stabilize for 30 min. All functional hemodynamic data were measured during steady state, and during volume- and pressure loading.
Left ventricular function curves were constructed by varying pre-load pressure. […]

The subject of data set [4] is vascular eNOS expression. As to the kind of experiment: Vascular eNOS expression (aorta, quantitative western blotting) in femoral artery cuff model. The format is in vivo. The following applies: ApoE deficient mice, 10 mg/kg/d, versus placebo. Here is the method:
After 3 day treatment of ApoE deficient mice with the respective compound, (10 mg/kg/d pressed in chow), animals were anesthetized with an intraperitoneal injection of pentobarbital (60 mg/kg) followed by an intramuscular injection of xylazin (2 mg/kg) and a cuff was placed around the femoral artery as described in Moroi et al. (J. Clin. Invest. 101: 1225-32, 1998). Briefly, the left femoral artery was dissected. A non-occlusive 2.0 mm polyethylene cuff made of PE-50 tubing (inner diameter 0.56 mm, outer diameter 0.965 mm, Becton Dickinson, Mountain View, Calif.) was placed around the artery and tied in place with two 7-0 sutures. The right femoral artery was isolated from the surrounding tissues but a cuff was not placed. Treatment with the respective compound was continued for 14 days after surgery. Then the animals were sacrificed. The aorta were taken for determination of vascular eNOS expressions by quantitative western blotting. Both femoral arteries were harvested, fixed in formalin and embedded in paraffin. 20 cross sections (10 μm) were cut from the cuffed portion of the left femoral artery and from the corresponding segment of the right artery. […] For each cross section the area of the lumen, the neointima and the media were determined. […] The ratio between the area of the neointima and the area of the media was expressed as the neointima/media ratio.
For orientation: A western blot detects proteins with antibodies after separation by electrophoresis.

For data set [5], the system named is ApoE deficient mice. In words: Anti-hypertensive effect in ApoE knockout mice (tail-cuff blood pressure). The format is in vivo. The conditions noted are these: 30 mg/kg/d, 4 months treatment, placebo 115±2 mmHg, p<0.05.
From the text: as §1, §2
A Anti-Hypertensive Effect in ApoE Knockout Mice
as §3

As to `COc1cc2c(cc1OC)CC(NC(=O)c1ccc(F)cc1)C2` [Compound 3, 4-FLUORO-N-(5,6-DIMETHOXY-INDAN-2-YL)-BENZAMIDE], the melting point was 160 °C.

In the case of `O=C(NC1Cc2ccccc2C1)c1ccc2c(c1)OC(F)(F)O2` [Compound 66, 2,2-DIFLUORO-BENZO[1,3]DIOXOL-5-CARBOXYLIC ACID INDAN-2-YLAMIDE], the melting point stood at 147.5 °C. In the data set with eNOS promoter, the maximal fold induction is 2.7 and the EC50 turned out to be 0.14 µM.

Compound `CC(O)c1ccc2c(c1)CC(NC(=O)c1ccc(F)cc1)C2` (stereo not shown) [Compound 402, 4-FLUORO-N-[5-(1-HYDROXY-ETHYL)-INDAN-2-YL]-BENZAMIDE] yielded a melting point of 135 °C.

Take `CC(=O)c1ccc2c(c1)CC(NC(=O)c1ccc(F)cc1)C2` (stereo not shown) [Compound 399, N-(5-ACETYL-INDAN-2-YL)-4-FLUORO-BENZAMIDE]: the melting point was determined as 148 °C.

Compound `O=C(NC1Cc2ccc(O)cc2C1)c1ccc(F)cc1` (stereo not shown) [Compound 404, 4-FLUORO-N-(5-HYDROXY-INDAN-2-YL)-BENZAMIDE] registered a melting point of 199 °C. Further, in the data set on eNOS promoter, the maximal fold induction was 3.5 and the EC50 is 12 µM.

`O=C(NC1Cc2ccccc2C1)c1ccc(OCc2ccccc2)cc1` [Compound 40, 4-BENZYLOXY-N-INDAN-2-YL-BENZAMIDE] came in with a melting point of 158.5 °C.

On to `O=C(NC1Cc2ccc(-c3ccc(F)cc3)cc2C1)c1ccc(F)cc1` (stereo not shown) [Compound 398A, 4-FLUORO-N-[5-(4-FLUOROPHENYL)-INDAN-2-YL]-BENZAMIDE], for which the melting point turned out to be 193 °C.

Compound `O=C(NC1Cc2cccc(-c3ccc(F)cc3)c2C1)c1ccc(F)cc1` (stereo not shown) [Compound 398B, 4-FLUORO-N-[4-(4-FLUOROPHENYL)-INDAN-2-YL]-BENZAMIDE] displayed a melting point of 157 °C. Also, in the data set with eNOS promoter, the maximal fold induction worked out at 3.46 and the EC50 turned out to be 30 µM.

In turn, `O=C(NC1Cc2ccc([N+](=O)[O-])cc2C1)c1ccc(F)cc1` (stereo not shown) [Compound 389, 4-FLUORO-N-(5-NITRO-INDAN-2-YL)-BENZAMIDE] came in with a melting point of 167 °C.

`O=C(NC1Cc2ccccc2C1)c1ccc(F)cc1` [Compound 21, 4-FLUORO-N-(INDAN-2-YL)-BENZAMIDE]: the “vascular eNOS expression up-regulation” value in the data set on vascular eNOS expression [1] came out at 1.75 fold. In the data set on eNOS deficient mice, the blood pressure reduction result is “No blood pressure reduction”. In the data set with ApoE deficient mice [2], the “reduction of neo-intima formation (factor)” value worked out at 2. In the data set on eNOS promoter, the maximal fold induction was found to be 4.1 and the EC50 came out at 0.8 µM. In addition, in the data set with ApoE deficient mice [3], the “pre-load dependent coronary flow” value was “improvement”. The “incidence of ventricular arrhythmias” value in the data set on ApoE deficient mice [3] (indicator for anti-ischemic efficacy) is recorded as “reduction”. This compound gave a coronary flow in the data set on ApoE deficient mice [3] (untreated ApoE 3.6, wildtype 4.95 ml/min) of 5 mL/min. In the data set with vascular eNOS expression [4], the “vascular eNOS expression enhanced by a factor” value is 2.1. In the data set on ApoE deficient mice [5], this compound yielded a blood pressure of 92±5 mmHg.

With `O=C(NC1Cc2ccccc2C1)c1c(F)ccc(F)c1Cl` [Compound 360, 2-CHLORO-3,6-DIFLUORO-N-INDAN-2-YL-BENZAMIDE], in the data set with eNOS promoter, the maximal fold induction was 2.6 and the EC50 came out at 10 µM.

In the case of `CC(=O)Nc1cccc(C(=O)NC2Cc3ccccc3C2)c1Cl` [Compound 267, 3-ACETYLAMINO-2-CHLORO-N-INDAN-2-YL-BENZAMIDE], in the data set on eNOS promoter, the maximal fold induction came to 2.5 and the EC50 was 2.8 µM.

Consider `O=C(NC1Cc2ccccc2C1)c1cccc(-c2ccccn2)c1` [Compound 433, N-INDAN-2-YL-3-PYRIDIN-2-YL-BENZAMIDE], for which, in the data set on eNOS promoter, the maximal fold induction worked out at 2.6 and the EC50 came out at 19 µM.

Consider `Cc1sccc1C(=O)NC1Cc2ccccc2C1` [Compound 365, 2-METHYL-THIOPHENE-3-CARBOXYLIC ACID INDAN-2-YLAMIDE], for which, in the data set on eNOS promoter, the maximal fold induction was found to be 3 and the EC50 came out at 0.25 µM.

Take `O=C(NC1Cc2ccccc2C1)c1ccc(C(=O)C(F)(F)F)cc1` [Compound 256, N-INDAN-2-YL-4-(2,2,2-TRIFLUORO-ACETYL)-BENZAMIDE]: in the data set with eNOS promoter, the maximal fold induction came out at 2.5 and the EC50 stood at 11 µM.

For the compound `Nc1nccnc1C(=O)NC1Cc2ccccc2C1` [Compound 185, 3-AMINO-PYRAZINE-2-CARBOXYLIC ACID INDAN-2-YLAMIDE], in the data set on eNOS promoter, the maximal fold induction came out at 2.4 and the EC50 was found to be 27 µM.

Regarding `O=C(NC1Cc2ccccc2C1)c1ccc(-c2ccccn2)cc1` [Compound 436, N-INDAN-2-YL-4-PYRIDIN-2-YL-BENZAMIDE], in the data set with eNOS promoter, the maximal fold induction was 2.6 and the EC50 worked out at 18 µM.

On to `Cc1cc(C)c(C(=O)NC2Cc3ccccc3C2)c(C)c1` [Compound 282, N-INDAN-2-YL-2,4,6-TRIMETHYL-BENZAMIDE], for which, in the data set with eNOS promoter, the maximal fold induction was 2.3 and the EC50 worked out at 16 µM.

`Cc1cc(C(=O)NC2Cc3ccccc3C2)c(C)s1` [Compound 368, 2,5-DIMETHYL-THIOPHENE-3-CARBOXYLIC ACID INDAN-2-YLAMIDE]: in the data set with eNOS promoter, the maximal fold induction is 2.5 and the EC50 came to 17 µM.
